Tests used:
Test in all cases: Inhibition zone, agar plate diffusion
Type in all cases: cell-based
Pseudomonas aeruginosa = settings: read-out: Inhibition zone (IZ)
Protocol: (§1) Antimicrobial activities of the newly formed Schiff bases (6a–d, 7a–d, 8a–d, and 9a–d) and reference drugs were evaluated against three Gram-positive, three Gram-negative, and two fungi strain at Al-Azhar University, Cairo, Egypt. The inhibition zones (IZ, in mm ± standard deviation) and the minimal inhibitory concentration (MIC) (μg/mL) were determined by the conventional paper disk diffusion method.
(§2) In Vitro Antimicrobial Activities
(§3) The antimicrobial activities inhibition zone (IZ, mm±standard deviation) of pyrazole Schiff bases ( 6a-d , 7a-d, 8a-d and 9a-d ) was measurement according to the agar plate diffusion method. Briefly, 100 µl of the […]
(§4) […] of each sample (at 0.5 mg/mL) was added to each well (10 mm diameter holes cut in the agar gel). The plates were incubated for 24 h at 37 °C (for bacteria and yeast) and for 72 h at 27 °C (for filamentous fungi), each test was repeated three times. After incubation, the microorganism's growth was observed. […]
(§5) drugs while Amphotericin B was used as standard antifungal drug. The resulting inhibition zone diameters were measured in millimeters and used as criterion for the antimicrobial activity. Solvent controls (DMSO) were included in every experiment as negative controls. DMSO was used for dissolving […]
(§6) the tested microorganisms. […]

Bacillus subtilis = settings: read-out: Inhibition zone (IZ)
Protocol: as §1, §2, §3, §4, §5, §6

Enterococcus faecalis = settings: read-out: Inhibition zone (IZ)
Protocol: as §1, §2, §3, §4, §5, §6

Escherichia coli = settings: read-out: Inhibition zone (IZ)
Protocol: as §1, §2, §3, §4, §5, §6

Staphylococcus aureus = settings: read-out: Inhibition zone (IZ)
Protocol: as §1, §2, §3, §4, §5, §6
(§7) Bacteria were grown on nutrient agar medium, while fungi and yeast were grown on Sabouraud agar medium. […]

Fusarium oxysporum = settings: read-out: Inhibition zone (IZ)
Protocol: as §1, §2, §3, §4, §5, §6, §7

Salmonella typhi = settings: Salmonella enterica, St, mm ± standard deviation, sample at 0.5 mg/mL, read-out: Inhibition zone (IZ)
Protocol: as §1, §2, §3, §4, §5, §6, §7

Candida albicans = settings: read-out: Inhibition zone (IZ)
Protocol: as §1, §2, §3, §4, §5, §6, §7

SMILES	zone of inhibition at 500 µg/mL (Pseudomonas aeruginosa) [mm]	zone of inhibition at 500 µg/mL (Bacillus subtilis) [mm]	zone of inhibition at 500 µg/mL (Enterococcus faecalis) [mm]	zone of inhibition at 500 µg/mL (Escherichia coli) [mm]	zone of inhibition at 500 µg/mL (Staphylococcus aureus) [mm]	zone of inhibition at 500 µg/mL (Fusarium oxysporum) [mm]	zone of inhibition at 500 µg/mL (Salmonella typhi) [mm]	zone of inhibition at 500 µg/mL (Candida albicans) [mm]
COc1ccc(Nc2n[nH]c(N=Cc3ccc(N4CCCCC4)cc3)c2C(=O)Nc2ccccc2)cc1 [8b, 3-(p-Methoxyphenylamino)-N-phenyl-5-(4-(piperidin-1-yl)benzylideneamino)-1H-pyrazole-4-carboxamide]	< 8	15 ± 0.45	12 ± 0.74	14 ± 0.21	< 8	< 8	15 ± 0.2	12 ± 0.65
COc1ccc(Nc2n[nH]c(N=Cc3c(C)n(C)n(-c4ccccc4)c3=O)c2C(=O)Nc2ccc(Cl)cc2)cc1 [6d, N-(4-Chlorophenyl)-5-((1,5-dimethyl-3-oxo-2-phenyl-2,3-dihydro-1H-pyrazol-4-yl)methyleneamino)-3-(p-methoxyphenylamino)-1H-pyrazole-4-carboxamide]	12 ± 0.63	13 ± 0.41	14 ± 0.47	19 ± 0.33	< 8	< 8	< 8	13 ± 0.2
COc1ccc(Nc2n[nH]c(N=Cc3c(C)nn(-c4ccccc4)c3Cl)c2C(=O)Nc2ccc(Cl)cc2)cc1 [7d, 5-((5-Chloro-3-methyl-1-phenyl-1H-pyrazol-4-yl)methyleneamino)-N-(p-chlorophenyl)-3-(p-methoxyphenylamino)-1H-pyrazole-4-carboxamide]	17 ± 0.74	23 ± 0.22	22 ± 0.35	27 ± 0.3	24 ± 0.33	15 ± 0.14	17 ± 0.12	20 ± 0.5
COc1ccc(Nc2n[nH]c(N=Cc3ccc(N4CCCCC4)cc3)c2C(=O)Nc2ccc(C)cc2)cc1 [8c, 3-(p-Methoxyphenylamino)-5-(4-(piperidin-1-yl)benzylideneamino)-N-p-tolyl-1H-pyrazole-4-carboxamide]	< 8	22 ± 0.41	25 ± 0.14	18 ± 0.3	17 ± 0.78	< 8	14 ± 0.52	19 ± 0.65

From paper PMC7321065, “Discovery of New Schiff Bases Tethered Pyrazole Moiety: Design, Synthesis, Biological Evaluation, and Molecular Docking Study as Dual Targeting DHFR/DNA Gyrase Inhibitors with Immunomodulatory Activity” (Molecules, 2020)
